Results from BindingDB's records for doi:10.1016/j.ejmech.2019.111919 (University of Auckland, 2020).

Assays:
[1] = Inhibition of Bacillus cereus PC-phospholipase C using phosphoryl-choline as substrate by molybdenum blue dye based assay
[2] = biological target: Phosphatidylcholine-specific phospholipase C (Bacillus cereus) (UniProt P09598); assay: Inhibition of recombinant Bacillus cereus N-terminal His6-tagged full length PC-PLC 3C Protease cleavage site expressed in Escherichia coli BL21(DE3) cells using phosphatidylcholine as substrate by amplex red assay relative to control
Phosphatidylcholine-specific phospholipase C (Bacillus cereus), sequence (P09598 whole entry, looked up): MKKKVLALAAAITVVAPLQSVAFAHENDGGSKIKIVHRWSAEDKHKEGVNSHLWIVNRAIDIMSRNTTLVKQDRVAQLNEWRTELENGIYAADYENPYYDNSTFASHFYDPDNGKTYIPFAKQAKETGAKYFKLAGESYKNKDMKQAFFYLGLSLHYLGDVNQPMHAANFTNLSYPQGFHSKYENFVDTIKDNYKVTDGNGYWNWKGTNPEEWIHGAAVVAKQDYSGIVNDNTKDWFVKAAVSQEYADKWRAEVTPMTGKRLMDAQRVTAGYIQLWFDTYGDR

[3] = Inhibition of Bacillus cereus phospholipase C using L-alpha-phosphatidylcholine as substrate by Lineweaver-Burk plot analysis
[4] = biological target: Phosphatidylcholine-specific phospholipase C (Bacillus cereus) (UniProt P09598); assay: Binding affinity to Bacillus cereus N-terminal His6-tagged full length PC-PLC 3C Protease cleavage site expressed in Escherichia coli BL21(DE3) cells using 3,3-dimethylglutaratic acid as substrate by intrinsic fluorescence assay

Row | SMILES | IC50 [2] | other results
1 | O=C1N(O)CCCCN1O | – | Ki [1]: 71 µM
2 | O=C(O)c1cc(NCc2cccc(Br)c2)ccc1N1CCOCC1 | 3.69 µM | –
3 | O=C(O)c1cc(NCc2cccc(Cl)c2)ccc1N1CCOCC1 | 4.9 µM | –
4 | CCCCCOC(=O)CC(CSP(=O)([O-])OCC[N+](C)(C)C)C(=O)OCCCCC (stereo not drawn) | – | Ki [3]: 7 µM
5 | CN(C)c1ccc(C2NC(C(=O)O)Cc3c2[nH]c2ccccc32)cc1 (stereo not drawn) | 10.9 µM | –
6 | O=C(O)C1Cc2c([nH]c3ccccc23)C(c2ccc(O)c(O)c2)N1 (stereo not drawn) | 3.1 µM | –
7 | O=C(O)c1cc(NCc2ccccc2Cl)ccc1N1CCOCC1 | 3.6 µM | Kd [4]: 325 µM
